Numbers after ± are expanded uncertainties.
Assay: activity coefficient (dimensionless); of the first substance listed, at infinite dilution; xn = mol fraction of the nth substance listed
Conditions: 328.15 K; 101.33 kPa; Liquid; Chromatography; x1 = 0

In the case of `CCC(=O)OC` [methyl propanoate] + CCCCCCCCCCCC[N+](C)(C)CCOc1ccccc1.O=S(=O)([N-]S(=O)(=O)C(F)(F)F)C(F)(F)F, the activity coefficient is reported as 0.53 ± 0.039.

Same assay, conditions: 338.15 K; 101.33 kPa; Liquid; Chromatography; x1 = 0

Going from `C1CCCCCCC1` [cyclooctane] + CCCCCCCCCCCC[N+](C)(C)CCOc1ccccc1.O=S(=O)([N-]S(=O)(=O)C(F)(F)F)C(F)(F)F to `CCCCCCCCCC` [decane] + CCCCCCCCCCCC[N+](C)(C)CCOc1ccccc1.N#C[N-]C#N, the activity coefficient rises from 2.65 ± 0.18 to 9.17 ± 0.63.

`CCCCCCCCCC` [decane] + CCCCCCCCCCCC[N+](C)(C)CCOc1ccccc1.O=S(=O)([N-]S(=O)(=O)C(F)(F)F)C(F)(F)F and `CCCCCCC` [heptane] + CCCCCCCCCCCC[N+](C)(C)CCOc1ccccc1.N#C[N-]C#N are within error of each other in activity coefficient: 5.87 ± 0.4 for the first, 6.08 ± 0.41 for the second.

First: CCOCC [diethyl ether] + CCCCCCCCCCCC[N+](C)(C)CCOc1ccccc1.N#C[N-]C#N
Second: CCCOCCC [dipropyl ether] + CCCCCCCCCCCC[N+](C)(C)CCOc1ccccc1.N#C[N-]C#N
The activity coefficient of the first is lower: 2.22 ± 0.15 for the first, 3.46 ± 0.24 for the second.

Going from `CCOCC` [diethyl ether] + CCCCCCCCCCCC[N+](C)(C)CCOc1ccccc1.O=S(=O)([N-]S(=O)(=O)C(F)(F)F)C(F)(F)F to `CCCOCCC` [dipropyl ether] + CCCCCCCCCCCC[N+](C)(C)CCOc1ccccc1.O=S(=O)([N-]S(=O)(=O)C(F)(F)F)C(F)(F)F, the activity coefficient rises from 1.18 ± 0.08 to 1.92 ± 0.13.

Compared with `CC(C)OC(C)C` [diisopropyl ether] + CCCCCCCCCCCC[N+](C)(C)CCOc1ccccc1.N#C[N-]C#N, `CC(C)c1ccccc1` [isopropylbenzene] + CCCCCCCCCCCC[N+](C)(C)CCOc1ccccc1.N#C[N-]C#N is lower in activity coefficient: 4.12 ± 0.28 for the first, 1.87 ± 0.13 for the second.

First: CC(C)OC(C)C [diisopropyl ether] + CCCCCCCCCCCC[N+](C)(C)CCOc1ccccc1.O=S(=O)([N-]S(=O)(=O)C(F)(F)F)C(F)(F)F
Second: CC(C)c1ccccc1 [isopropylbenzene] + CCCCCCCCCCCC[N+](C)(C)CCOc1ccccc1.O=S(=O)([N-]S(=O)(=O)C(F)(F)F)C(F)(F)F
The activity coefficient of the first is higher: 2.03 ± 0.14 for the first, 1.24 ± 0.08 for the second.

First: CCO [ethanol] + CCCCCCCCCCCC[N+](C)(C)CCOc1ccccc1.N#C[N-]C#N
Second: CO [methanol] + CCCCCCCCCCCC[N+](C)(C)CCOc1ccccc1.N#C[N-]C#N
The activity coefficient of the first is higher: 0.421 ± 0.035 for the first, 0.324 ± 0.032 for the second.

`CCO` [ethanol] + CCCCCCCCCCCC[N+](C)(C)CCOc1ccccc1.O=S(=O)([N-]S(=O)(=O)C(F)(F)F)C(F)(F)F and `CO` [methanol] + CCCCCCCCCCCC[N+](C)(C)CCOc1ccccc1.O=S(=O)([N-]S(=O)(=O)C(F)(F)F)C(F)(F)F are within error of each other in activity coefficient: 1.16 ± 0.07 for the first, 1.04 ± 0.07 for the second.

First: CCOC(C)=O [ethyl acetate] + CCCCCCCCCCCC[N+](C)(C)CCOc1ccccc1.N#C[N-]C#N
Second: COC(C)=O [methyl ethanoate] + CCCCCCCCCCCC[N+](C)(C)CCOc1ccccc1.N#C[N-]C#N
The activity coefficient of the first is higher: 1.24 ± 0.08 for the first, 1.06 ± 0.07 for the second.

`CCOC(C)=O` [ethyl acetate] + CCCCCCCCCCCC[N+](C)(C)CCOc1ccccc1.O=S(=O)([N-]S(=O)(=O)C(F)(F)F)C(F)(F)F and `COC(C)=O` [methyl ethanoate] + CCCCCCCCCCCC[N+](C)(C)CCOc1ccccc1.O=S(=O)([N-]S(=O)(=O)C(F)(F)F)C(F)(F)F are within error of each other in activity coefficient: 0.563 ± 0.04 for the first, 0.534 ± 0.039 for the second.

Going from `CCc1ccccc1` [ethylbenzene] + CCCCCCCCCCCC[N+](C)(C)CCOc1ccccc1.N#C[N-]C#N to `CCC(=O)OC` [methyl propanoate] + CCCCCCCCCCCC[N+](C)(C)CCOc1ccccc1.N#C[N-]C#N, the activity coefficient falls from 1.45 ± 0.1 to 1.16 ± 0.07.

Compared with `CCc1ccccc1` [ethylbenzene] + CCCCCCCCCCCC[N+](C)(C)CCOc1ccccc1.O=S(=O)([N-]S(=O)(=O)C(F)(F)F)C(F)(F)F, `CCC(=O)OC` [methyl propanoate] + CCCCCCCCCCCC[N+](C)(C)CCOc1ccccc1.O=S(=O)([N-]S(=O)(=O)C(F)(F)F)C(F)(F)F is lower in activity coefficient: 0.995 ± 0.062 for the first, 0.566 ± 0.041 for the second.

Compared with `CCCCCCC` [heptane] + CCCCCCCCCCCC[N+](C)(C)CCOc1ccccc1.O=S(=O)([N-]S(=O)(=O)C(F)(F)F)C(F)(F)F, `CCCCCC` [hexane] + CCCCCCCCCCCC[N+](C)(C)CCOc1ccccc1.N#C[N-]C#N is higher in activity coefficient: 3.6 ± 0.25 for the first, 5.22 ± 0.36 for the second.

First: C=CCCCC [hex-1-ene] + CCCCCCCCCCCC[N+](C)(C)CCOc1ccccc1.N#C[N-]C#N
Second: CCCCCC [hexane] + CCCCCCCCCCCC[N+](C)(C)CCOc1ccccc1.O=S(=O)([N-]S(=O)(=O)C(F)(F)F)C(F)(F)F
The activity coefficient of the first is higher: 3.68 ± 0.25 for the first, 3.06 ± 0.21 for the second.

Going from `C=CCCCC` [hex-1-ene] + CCCCCCCCCCCC[N+](C)(C)CCOc1ccccc1.O=S(=O)([N-]S(=O)(=O)C(F)(F)F)C(F)(F)F to `CCCC(=O)OC` [methyl butanoate] + CCCCCCCCCCCC[N+](C)(C)CCOc1ccccc1.N#C[N-]C#N, the activity coefficient falls from 2.28 ± 0.16 to 1.34 ± 0.09.

In the case of `CCCC(=O)OC` [methyl butanoate] + CCCCCCCCCCCC[N+](C)(C)CCOc1ccccc1.O=S(=O)([N-]S(=O)(=O)C(F)(F)F)C(F)(F)F, the activity coefficient is reported as 0.636 ± 0.044.

Same assay, conditions: 348.15 K; 101.33 kPa; Liquid; Chromatography; x1 = 0

Going from `C1CCCCCCC1` [cyclooctane] + CCCCCCCCCCCC[N+](C)(C)CCOc1ccccc1.O=S(=O)([N-]S(=O)(=O)C(F)(F)F)C(F)(F)F to `CCCCCCCCCC` [decane] + CCCCCCCCCCCC[N+](C)(C)CCOc1ccccc1.N#C[N-]C#N, the activity coefficient rises from 2.68 ± 0.18 to 9.31 ± 0.64.

Going from `CCCCCCCCCC` [decane] + CCCCCCCCCCCC[N+](C)(C)CCOc1ccccc1.O=S(=O)([N-]S(=O)(=O)C(F)(F)F)C(F)(F)F to `CCCOCCC` [dipropyl ether] + CCCCCCCCCCCC[N+](C)(C)CCOc1ccccc1.N#C[N-]C#N, the activity coefficient falls from 5.92 ± 0.4 to 3.54 ± 0.24.

`CCOCC` [diethyl ether] + CCCCCCCCCCCC[N+](C)(C)CCOc1ccccc1.N#C[N-]C#N and `CCCOCCC` [dipropyl ether] + CCCCCCCCCCCC[N+](C)(C)CCOc1ccccc1.O=S(=O)([N-]S(=O)(=O)C(F)(F)F)C(F)(F)F are within error of each other in activity coefficient: 2.28 ± 0.16 for the first, 1.99 ± 0.14 for the second.

`CCOCC` [diethyl ether] + CCCCCCCCCCCC[N+](C)(C)CCOc1ccccc1.O=S(=O)([N-]S(=O)(=O)C(F)(F)F)C(F)(F)F and `CCOC(C)=O` [ethyl acetate] + CCCCCCCCCCCC[N+](C)(C)CCOc1ccccc1.N#C[N-]C#N are within error of each other in activity coefficient: 1.24 ± 0.08 for the first, 1.27 ± 0.08 for the second.

Compared with `CC(C)OC(C)C` [diisopropyl ether] + CCCCCCCCCCCC[N+](C)(C)CCOc1ccccc1.N#C[N-]C#N, `CCOC(C)=O` [ethyl acetate] + CCCCCCCCCCCC[N+](C)(C)CCOc1ccccc1.O=S(=O)([N-]S(=O)(=O)C(F)(F)F)C(F)(F)F is lower in activity coefficient: 4.22 ± 0.29 for the first, 0.592 ± 0.042 for the second.

First: CC(C)OC(C)C [diisopropyl ether] + CCCCCCCCCCCC[N+](C)(C)CCOc1ccccc1.O=S(=O)([N-]S(=O)(=O)C(F)(F)F)C(F)(F)F
Second: CCO [ethanol] + CCCCCCCCCCCC[N+](C)(C)CCOc1ccccc1.N#C[N-]C#N
The activity coefficient of the first is higher: 2.1 ± 0.14 for the first, 0.429 ± 0.035 for the second.

First: CCO [ethanol] + CCCCCCCCCCCC[N+](C)(C)CCOc1ccccc1.O=S(=O)([N-]S(=O)(=O)C(F)(F)F)C(F)(F)F
Second: CCc1ccccc1 [ethylbenzene] + CCCCCCCCCCCC[N+](C)(C)CCOc1ccccc1.N#C[N-]C#N
The activity coefficient of the first is lower: 1.12 ± 0.07 for the first, 1.5 ± 0.1 for the second.

For `CCc1ccccc1` [ethylbenzene] + CCCCCCCCCCCC[N+](C)(C)CCOc1ccccc1.O=S(=O)([N-]S(=O)(=O)C(F)(F)F)C(F)(F)F, the activity coefficient was 1.04 ± 0.07.
